Reference: publication PMC9606955, “In Vitro Activity of Essential Oils Distilled from Colombian Plants against Candida auris and Other Candida Species with Different Antifungal Susceptibility Profiles” (Molecules, 2022)
In brackets after ≈: the same amount, converted by molar mass. Entries after “also recorded” stand apart in the source; their conditions may differ. Where two headings read alike, the source gives them in different places. Blank lines part the entries; values can stand above or below the molecule they belong to.

Columns and labels:
C. auris = tested on: C. auris; design: method as in PMID 31980703; details: cited from earlier work
C. lusitaniae MUM 17.08 = experiment: MIC, CLSI M27 broth microdilution; type: cell-based, Candida lusitaniae; details: for MIC: Clavispora lusitaniae, read-out: GM MIC
From the text: (§1) The fungal strains used in this study were C. albicans ATCC 10231, C. albicans ATCC 64550, C. parapsilosis ATCC 22019, C. tropicalis ATCC 750, C. tropicalis ATCC 200956 (resistant to azoles and AMB), C. glabrata LMDM 34 (resistant to echinocandins), C. metapsilosis MUM 15.12, C. orthopsilosis MUM 17.13, C. lusitaniae MUM 17.08, C. krusei ATCC 6258 (Issatchenkia orientalis ATCC 6258), and C. auris CDC B11903. Additionally, nine clinical isolates were included: C. parapsilosis Synlab 406 (FLC-resistant) and eight C. auris isolates identified by MALDI-TOF MS (Bruker Daltonics, Bremen, Germany) according to Zhao et al.. These yeasts were cultured on Sabouraud Dextrose Agar (SDA; Sigma-Aldrich, St. Louis, MO, USA) for 24 h at 35 °C.
(§2) Antifungal susceptibility testing was performed according to Clinical and Laboratory Standards Institute M27, 4th Edition (CLSI standard M27, 4th Edition). Some modifications were applied for evaluation of the antifungal activity of EOs and terpenes. Initially, a screening was carried out to determine the antifungal activity of the EOs and of commercial terpenes. Stock concentrations of EOs and terpenes were prepared at 512 µg/mL and an inoculum of 2.5 × 10^3 CFU/mL of each yeast was prepared in RPMI 1640-MOPS (Sigma- Aldrich St. Louis, MO, USA). Thereafter, 100 µL of each stock solution of EOs or terpenes was dispensed in 96-well microdilution plates (Corning®, Costar®, NY, USA) and 100 µL of each yeast inoculum was added. […] Microdilution plates were incubated at 35 °C and, after 24 h, the presence or absence of growth was visually checked using a manual mirror viewer and then compared with the amount of growth in the control (no EO or terpene). Compounds able to inhibit yeast growth were tested to determine the minimal inhibitory concentration (MIC) as follows: 100 µL of 10 two-fold dilutions of the EOs or commercial terpenes was dispensed in 96-well microplates and the yeast inoculum was added. Final concentrations of the EOs or terpenes ranged from 0.5 µg/mL to 256 µg/mL. Microdilution plates were incubated at 35 °C for 24 h. MICs were visually determined at the lowest concentration that produced visual inhibition compared to the growth control. The assays were performed at least three times in duplicate on different days. The results were expressed as geometric means (GM) and ranges. As an antifungal susceptibility testing control, the activity of ITC and AMB against the reference strains C. krusei ATCC 6258 and C. parapsilosis ATCC 22019 was evaluated in all experiments following the CLSI standard M27, 4th Edition. It was mandatory that the MIC values remained in the accepted range.

C. krusei ATCC 6258 = experiment: MIC, CLSI M27 broth microdilution; type: cell-based, Candida krusei; details: for MIC: Pichia kudriavzevii, read-out: GM MIC
From the text: as §1, §2

[1] = tested on: C. tropicalis ATCC 200956; experiment: MIC, CLSI M27 broth microdilution; type: cell-based, Candida tropicalis; details: for MIC: Candida tropicalis, read-out: GM MIC
From the text: as §1, §2

[2] = tested on: C. orthopsilosis MUM 17.13; experiment: MIC, CLSI M27 broth microdilution; type: cell-based, Candida orthopsilosis; details: Lodderomyces orthopsilosis, read-out: GM MIC
From the text: as §1, §2

[3] = tested on: C. metapsilosis MUM 15.12; experiment: MIC, CLSI M27 broth microdilution; type: cell-based, Candida metapsilosis; details: Lodderomyces metapsilosis, read-out: GM MIC
From the text: as §1, §2

Candida spp. = experiment: Screening of antifungal activity at 256 µg/mL against twenty strains; type: cell-based; details: screening at 256 µg/mL
From the text: as §1
Antifungal susceptibility testing was performed according to Clinical and Laboratory Standards Institute M27, 4th Edition (CLSI standard M27, 4th Edition). Some modifications were applied for evaluation of the antifungal activity of EOs and terpenes. Initially, a screening was carried out to determine the antifungal activity of the EOs and of commercial terpenes. Stock concentrations of EOs and terpenes were prepared at 512 µg/mL and an inoculum of 2.5 × 10^3 CFU/mL of each yeast was prepared in RPMI 1640-MOPS (Sigma- Aldrich St. Louis, MO, USA). Thereafter, 100 µL of each stock solution of EOs or terpenes was dispensed in 96-well microdilution plates (Corning®, Costar®, NY, USA) and 100 µL of each yeast inoculum was added. […] MICs were visually determined at the lowest concentration that produced visual inhibition compared to the growth control. […] The results were expressed as geometric means (GM) and ranges. As an antifungal susceptibility testing control, the activity of ITC and AMB against the reference strains C. krusei ATCC 6258 and C. parapsilosis ATCC 22019 was evaluated in all experiments following the CLSI standard M27, 4th Edition. […]

C. auris Ca 1 = experiment: MIC, CLSI M27 broth microdilution; type: cell-based, Candida auris; details: for MIC: Candidozyma auris, read-out: GM MIC
From the text: as §1, §2

C. auris Ca 45 = experiment: MIC, CLSI M27 broth microdilution; type: cell-based, Candida auris; details: for MIC: Candidozyma auris, read-out: GM MIC
From the text: as §1, §2

C. auris Ca 17 = experiment: MIC, CLSI M27 broth microdilution; type: cell-based, Candida auris; details: Candidozyma auris, read-out: GM MIC
From the text: as §1, §2

C. auris Ca 9 = experiment: MIC, CLSI M27 broth microdilution; type: cell-based, Candida auris; details: Candidozyma auris, read-out: GM MIC
From the text: as §1, §2

C. auris Ca 13 = experiment: MIC, CLSI M27 broth microdilution; type: cell-based, Candida auris; details: for MIC: Candidozyma auris, read-out: GM MIC
From the text: as §1, §2

C. auris Ca 32 = experiment: MIC, CLSI M27 broth microdilution; type: cell-based, Candida auris; details: Candidozyma auris, read-out: GM MIC
From the text: as §1, §2

C. auris CDC B11903 [4] = experiment: MIC, CLSI M27 broth microdilution; type: cell-based, Candida auris; details: for MIC: Candidozyma auris, read-out: GM MIC
From the text: as §1, §2

C. auris Ca 41 = experiment: MIC, CLSI M27 broth microdilution; type: cell-based, Candida auris; details: for MIC: Candidozyma auris, read-out: GM MIC
From the text: as §1, §2

C. auris Ca 46 = experiment: MIC, CLSI M27 broth microdilution; type: cell-based, Candida auris; details: Candidozyma auris, read-out: GM MIC
From the text: as §1, §2

[5] = tested on: C. parapsilosis Synlab 406; experiment: MIC, CLSI M27 broth microdilution; type: cell-based, Candida parapsilosis; details: for MIC: Lodderomyces parapsilosis, read-out: GM MIC
From the text: as §1, §2

Cytotoxicity, MTT assay = details: human, HaCaT keratinocyte cells
Procedure: Cells were cultured in Dulbecco’s Modified Eagle Medium (DMEM; Sigma-Aldrich, St. Louis, MO, USA) supplemented with 10% fetal bovine serum (Invitrogen, Carlsbad, CA, USA), 1% penicillin, streptomycin, and neomycin (Invitrogen, Carlsbad, CA, USA), and 1% L-glutamine (Invitrogen, Carlsbad, CA, USA) at 37 °C in a humidified atmosphere of 5% CO2. […] Afterwards, the culture medium was removed and 3-(4.5-dimethylthiazol-2-yl)-2.5-diphenyltetrazolium bromide (MTT) (Sigma-Aldrich, St. Louis, MO, USA) at 5 mg/mL was added at 37 °C for 2 h. Subsequently, DMSO was added to dissolve the formazan crystals. Finally, the absorbances were measured with a Multiskan SkyHigh Microplate Spectrophotometer (Thermo Fisher Scientific, Waltham, MA, USA) at λ = 570 nm. The CC50 values were obtained by linear regression analysis with concentration–response curves, which were performed with absorbance data using GraphPad Prism software (Prism 9.3.0, San Diego, CA, USA). The assays were conducted at two separate times in triplicate. The data were expressed as means.

C. auris CDC B11903 [6] = experiment: Time–kill assay; type: cell-based, Candida auris
Procedure: (§3) Time–kill assays with the L. origanoides (thymol + p-cymene) chemotype (Code 0018) EO, thymol, FLC, and AMB against C. albicans ATCC 10231, C. tropicalis ATCC 200956, and C. auris CDC B11903 were performed according to the protocol published by Klebser et al. with some modifications. […] Absorbance at λ = 490 nm was measured every 2 h with a Multiskan SkyHigh Microplate Spectrophotometer. AMB and FLC were included as fungicidal and fungistatic control drugs, respectively.

C. albicans ATCC 10231 = experiment: Time–kill assay; type: cell-based, Candida albicans; details: 1X and 2X MIC, 24 h
Procedure: as §3

[7] = tested on: C. tropicalis ATCC 200956; experiment: Time–kill assay; type: cell-based, Candida tropicalis; details: 1X and 2X MIC, 24 h
Procedure: as §3

[8] = C. lusitaniae MUM 17.08, EOs and terpenes
[9] = C. auris Ca 1, EOs and terpenes

Structure (SMILES): Cc1ccc(C(C)C)cc1O [Carvacrol, carvacrol]
MIC Range (C. auris): 63 to 250 µg/mL
Range MIC (C. lusitaniae MUM 17.08; [8]): 128 to 256 µg/mL
MIC (C. lusitaniae MUM 17.08; MUM17.08, 24 h): 181 µg/mL (≈ 1200 µM)
MIC (C. krusei ATCC 6258; ATCC6258, 24 h): 256 µg/mL (≈ 1700 µM)
MIC ([1]; ATCC200956, 24 h): 128 µg/mL (≈ 852 µM)
MIC ([2]; MUM17.13, 24 h): 128 µg/mL (≈ 852 µM)
MIC ([3]; MUM15.12, 24 h): 128 µg/mL (≈ 852 µM)
antifungal activity in screening (Candida spp.): active against all tested Candida spp.
Range MIC (C. auris Ca 1; [9]): 128 to 256 µg/mL
MIC (C. auris Ca 1; CA1, 24 h): 181 µg/mL (≈ 1200 µM)
Range MIC (C. auris Ca 45; C. auris Ca 45, EOs and terpenes): 64 to 128 µg/mL
MIC (C. auris Ca 45; CA45, 24 h): 90.5 µg/mL (≈ 602 µM)
MIC (C. auris Ca 17; CA17, 24 h): 128 µg/mL (≈ 852 µM)
MIC (C. auris Ca 9; CA9, 24 h): 256 µg/mL (≈ 1700 µM)
Range MIC (C. auris Ca 13; C. auris Ca 13, EOs and terpenes): 128 to 256 µg/mL
MIC (C. auris Ca 13; CA13, 24 h): 181 µg/mL (≈ 1200 µM)
MIC (C. auris Ca 32; CA32, 24 h): 64 µg/mL (≈ 426 µM)
Range MIC (C. auris CDC B11903 [4]; C. auris CDC B11903, EOs and terpenes): 64 to 128 µg/mL
MIC (C. auris CDC B11903 [4]; CDCB11903, 24 h): 90.5 µg/mL (≈ 602 µM)
Range MIC (C. auris Ca 41; C. auris Ca 41, EOs and terpenes): 64 to 128 µg/mL
MIC (C. auris Ca 41; CA41, 24 h): 90.5 µg/mL (≈ 602 µM)
MIC (C. auris Ca 46; CA46, 24 h): 64 µg/mL (≈ 426 µM)
Range MIC ([5]; C. parapsilosis Synlab 406, EOs and terpenes): 32 to 64 µg/mL
MIC ([5]; SYNLAB406, 24 h): 45.3 µg/mL (≈ 302 µM)
CC50 at 24 h (Cytotoxicity, MTT assay): 411 µg/mL (≈ 2730 µM)

Range MIC (C. lusitaniae MUM 17.08; [8]): 64 to 128 µg/mL
MIC (C. lusitaniae MUM 17.08; MUM17.08, C. lusitaniae MUM 17.08, EOs and terpenes, 24 h, top concentration 256 µg/mL): 90.5 µg/mL (≈ 602 µM)
Range MIC (C. krusei ATCC 6258; C. krusei ATCC 6258, EOs and terpenes): 128 to 256 µg/mL
MIC (C. krusei ATCC 6258; ATCC6258, C. krusei ATCC 6258, EOs and terpenes, 24 h, top concentration 256 µg/mL): 181 µg/mL (≈ 1200 µM)
Range MIC ([1]; C. tropicalis ATCC 200956, EOs and terpenes): 64 to 128 µg/mL
MIC ([1]; ATCC200956, C. tropicalis ATCC 200956, EOs and terpenes, 24 h, top concentration 256 µg/mL): 90.5 µg/mL (≈ 602 µM)
MIC ([2]; MUM17.13, C. orthopsilosis MUM 15.12 (Table 3), EOs and terpenes, 24 h, top concentration 256 µg/mL): 128 µg/mL (≈ 852 µM)
MIC ([3]; MUM15.12, C. metapsilosis MUM 17.13 (Table 3), EOs and terpenes, 24 h, top concentration 256 µg/mL): 128 µg/mL (≈ 852 µM)
Range MIC (C. auris Ca 1; [9]): 128 to 256 µg/mL
MIC (C. auris Ca 1; CA1, C. auris Ca 1, EOs and terpenes, 24 h, top concentration 256 µg/mL): 181 µg/mL (≈ 1200 µM)
MIC (C. auris Ca 45; CA45, C. auris Ca 45, EOs and terpenes, 24 h, top concentration 256 µg/mL): 64 µg/mL (≈ 426 µM)
MIC (C. auris Ca 17; CA17, C. auris Ca 17, EOs and terpenes, 24 h, top concentration 256 µg/mL): 64 µg/mL (≈ 426 µM)
MIC (C. auris Ca 9; CA9, C. auris Ca 9, EOs and terpenes, 24 h, top concentration 256 µg/mL): 128 µg/mL (≈ 852 µM)
MIC (C. auris Ca 13; CA13, C. auris Ca 13, EOs and terpenes, 24 h, top concentration 256 µg/mL): 128 µg/mL (≈ 852 µM)
MIC (C. auris Ca 32; CA32, C. auris Ca 32, EOs and terpenes, 24 h, top concentration 256 µg/mL): 64 µg/mL (≈ 426 µM)
MIC (C. auris CDC B11903 [4]; CDCB11903, C. auris CDC B11903, EOs and terpenes, 24 h, top concentration 256 µg/mL): 64 µg/mL (≈ 426 µM)
MIC (C. auris Ca 41; CA41, C. auris Ca 41, EOs and terpenes, 24 h, top concentration 256 µg/mL): 64 µg/mL (≈ 426 µM)
MIC (C. auris Ca 46; CA46, C. auris Ca 46, EOs and terpenes, 24 h, top concentration 256 µg/mL): 64 µg/mL (≈ 426 µM)
MIC ([5]; SYNLAB406, C. parapsilosis Synlab 406, EOs and terpenes, 24 h, top concentration 256 µg/mL): 64 µg/mL (≈ 426 µM)
Structure (SMILES): Cc1ccc(C(C)C)c(O)c1 [Thymol, thymol]
MIC Range (C. auris): 156 to 625 µg/mL
effect on growth in time–kill assay (C. auris CDC B11903 [6]; 0.5, 1 and 2X MIC, 24 h): not affected; also recorded: did not show fungicidal activity
lag-phase in time–kill assay (C. auris CDC B11903 [6]; 2X MIC): extended lag-phase
effect in time–kill assay (C. albicans ATCC 10231): fungicidal
effect in time–kill assay [7]: fungicidal
antifungal activity in screening (Candida spp.): active against all tested Candida spp.
CC50 at 24 h (Cytotoxicity, MTT assay): 428 µg/mL (≈ 2850 µM)
